From ChEMBL document CHEMBL1127222, “Protection of the peptide bond against -chymotrypsin by the prodrug approach” (Bioorg Med Chem Lett, 1993) come the findings set out here.

What all share (assay type): ADME
Data set [1] can be described thus: Half life period in the presence of alpha-chymotrypsin at the concentration of 1.0 mg/mL.
Data set [2] can be described thus: Half life period in the presence of alpha-chymotrypsin at the concentration of 0.5 mg/ml.
A short description of data set [3]: Half life period in the presence of alpha-chymotrypsin at the concentration of 0.25 mg/ml.
Data set [4] can be described thus: Half life period in buffer solution at pH 7.4: found to be stable.
A short description of data set [5]: Half life period in buffer solution at pH 7.4.

As a reminder, the half-life is the time needed for the level to fall by half in the phase considered. `CC(=O)NC(Cc1ccccc1)C(=O)NCc1ccccc1` (stereo unspecified): the half-life is 3.9 h in data set [1], 7.5 h in data set [2] and 15 h in data set [3]. Further, the T1/2 result in data set [4] is on record as “Stable”.

As for `CC(=O)N(CO)C(Cc1ccccc1)C(N)=O` (stereo unspecified), the half-life in data set [1] was determined as 0.533 h; in data set [2] it was 0.583 h; in data set [5] it was 0.633 h; in data set [3], 0.55 h.

Consider `CC(=O)NC(Cc1ccccc1)C(N)=O` (stereo unspecified), for which the half-life in data set [1] was 2.3 h; in data set [2], 4.9 h; in data set [3], 9.6 h. For the same molecule, the T1/2 entry in data set [4] was “Stable”.

With `CC(=O)N(CO)C(Cc1ccccc1)C(=O)NCc1ccccc1` (stereo unspecified), the half-life in data set [1] stood at 1.05 h; in data set [2] it was 1.07 h; in data set [5], 1.05 h; in data set [3], 1.08 h.
